According to US20150105252A1, “SUBSTITUTED PYRAZOLES AS HERBICIDES” (E I DU PONT DE NEMOURS AND COMPANY, priority 2013, published 2015):

Legend:
wheat, winter = assay: Test D postemergence; format: in vivo, Triticum aestivum; conditions: scale 0 to 100
How it was run: (§1)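 Formulation was a non-phytotoxic solvent mixture plus surfactant, applied either to soil at planting (silt loam, preemergence) or to foliage of 2–18 cm plants (postemergence). Visual evaluation versus controls followed at 14–21 days, scored 0–100.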

wheat, spring = assay: Test D postemergence; format: in vivo, Triticum aestivum; conditions: scale 0 to 100
How it was run: as §1

buckwheat, wild = assay: Test D preemergence; format: in vivo, Polygonum convolvulus; conditions: scale 0 to 100
How it was run: as §1

oat, wild = assay: Test D postemergence; format: in vivo, Avena fatua; conditions: scale 0 to 100
How it was run: as §1

chamomile = assay: Test D postemergence; format: in vivo, Matricaria inodora; conditions: scale 0 to 100
How it was run: as §1

deadnettle = assay: Test D postemergence; format: in vivo, Lamium amplexicaule; conditions: scale 0 to 100
How it was run: as §1

radish, wild = assay: Test D preemergence; format: in vivo, Raphanus raphanistrum; conditions: scale 0 to 100
How it was run: as §1

arrowleaf sida = assay: Test F preemergence; format: in vivo, Sida rhombifolia
How it was run: (§2)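 Formulated in surfactant-containing non-phytotoxic solvent; pre: applied to seeded silt loam; post: applied to plants 2–18 cm (1–4 leaves); greenhouse 14–21 d; visual 0–100 rating vs controls.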

giant foxtail = assay: Test F preemergence; format: in vivo, Setaria faberii
How it was run: as §2

barley, spring = assay: Test D preemergence; format: in vivo, Hordeum vulgare; conditions: scale 0 to 100
How it was run: as §1

barley, winter = assay: Test D preemergence; format: in vivo, Hordeum vulgare; conditions: scale 0 to 100
How it was run: as §1

hairy beggarticks = assay: Test F preemergence; format: in vivo, Bidens pilosa
How it was run: as §2

canarygrass = assay: Test D postemergence; format: in vivo, Phalaris minor; conditions: scale 0 to 100
How it was run: as §1

johnsongrass = assay: Test F preemergence; format: in vivo, Sorghum halepense
How it was run: as §2

[1] = Preemergence, 31 g ai/ha, scale 0 to 100
[2] = Preemergence, 62 g ai/ha, scale 0 to 100
[3] = Preemergence, 125 g ai/ha, scale 0 to 100
[4] = preemergence, 8 g ai/ha, scale 0 to 100, 100 is complete control
[5] = preemergence, 16 g ai/ha, scale 0 to 100, 100 is complete control

## CCCc1cc(C(=O)NCC(F)(F)F)nn1Cc1ccnc(C(F)(F)F)c1 [Compound 105]
wheat, winter; Postemergence, 31 g ai/ha
  Wheat, Winter plant response rating: 10
wheat, winter; Postemergence, 125 g ai/ha
  Wheat, Winter plant response rating: 40
wheat, winter; Postemergence, 250 g ai/ha
  Wheat, Winter plant response rating: 70
wheat, winter; postemergence, 62 g ai/ha
  Wheat, Winter plant response rating: 15
wheat, spring; Postemergence, 31 g ai/ha
  Wheat, Spring plant response rating: 5
wheat, spring; Postemergence, 125 g ai/ha
  Wheat, Spring plant response rating: 20
wheat, spring; Postemergence, 250 g ai/ha
  Wheat, Spring plant response rating: 40
wheat, spring; postemergence, 62 g ai/ha
  Wheat, Spring plant response rating: 10
buckwheat, wild; 31 g ai/ha
  Plant response rating, Buckwheat, Wild: 85
buckwheat, wild; 62 g ai/ha
  Plant response rating, Buckwheat, Wild: 90
buckwheat, wild; 125 g ai/ha
  Plant response rating, Buckwheat, Wild: 95
buckwheat, wild; 250 g ai/ha
  Plant response rating, Buckwheat, Wild: 100
oat, wild; Postemergence, 31 g ai/ha
  Oat, Wild plant response rating: 15
oat, wild; Postemergence, 125 g ai/ha
  Oat, Wild plant response rating: 25
oat, wild; Postemergence, 250 g ai/ha
  Oat, Wild plant response rating: 50
oat, wild; postemergence, 62 g ai/ha
  Oat, Wild plant response rating: 20
chamomile; Postemergence, 31 g ai/ha
  Chamomile plant response rating: 25
chamomile; Postemergence, 125 g ai/ha
  Chamomile plant response rating: 65
chamomile; Postemergence, 250 g ai/ha
  Chamomile plant response rating: 80
chamomile; postemergence, 62 g ai/ha
  Chamomile plant response rating: 50
deadnettle; Postemergence, 31 g ai/ha
  Deadnettle plant response rating: 15
deadnettle; Postemergence, 125 g ai/ha
  Deadnettle plant response rating: 55
deadnettle; Postemergence, 250 g ai/ha
  Deadnettle plant response rating: 60
deadnettle; postemergence, 62 g ai/ha
  Deadnettle plant response rating: 20
radish, wild; 31 g ai/ha
  Plant response rating, Radish, Wild: 35
radish, wild; 62 g ai/ha
  Plant response rating, Radish, Wild: 100
radish, wild; 125 g ai/ha
  Plant response rating, Radish, Wild: 100
radish, wild; 250 g ai/ha
  Plant response rating, Radish, Wild: 100
Arrowleaf sida; [1]
  Plant response rating, Arrowleaf Sida: 0
Arrowleaf sida; [2]
  Plant response rating, Arrowleaf Sida: 0
Arrowleaf sida; [3]
  Plant response rating, Arrowleaf Sida: 15
Arrowleaf sida; [4]
  Plant response rating, Arrowleaf Sida: 0
Arrowleaf sida; [5]
  Plant response rating, Arrowleaf Sida: 0
Giant foxtail; [1]
  Plant response rating, Giant Foxtail: 100
Giant foxtail; [2]
  Plant response rating, Giant Foxtail: 100
Giant foxtail; [3]
  Plant response rating, Giant Foxtail: 100
Giant foxtail; [4]
  Plant response rating, Giant Foxtail: 10
Giant foxtail; [5]
  Plant response rating, Giant Foxtail: 65
barley, spring; 31 g ai/ha
  Plant response rating, Barley, Spring: 15
barley, spring; 62 g ai/ha
  Plant response rating, Barley, Spring: 40
barley, spring; 125 g ai/ha
  Plant response rating, Barley, Spring: 65
barley, spring; 250 g ai/ha
  Plant response rating, Barley, Spring: 85
barley, winter; 31 g ai/ha
  Plant response rating, Barley, Winter: 5
barley, winter; 62 g ai/ha
  Plant response rating, Barley, Winter: 40
barley, winter; 125 g ai/ha
  Plant response rating, Barley, Winter: 70
barley, winter; 250 g ai/ha
  Plant response rating, Barley, Winter: 95
Hairy beggarticks; [1]
  Plant response rating, Hairy Beggarticks: 0
Hairy beggarticks; [2]
  Plant response rating, Hairy Beggarticks: 20
Hairy beggarticks; [3]
  Plant response rating, Hairy Beggarticks: 40
Hairy beggarticks; [4]
  Plant response rating, Hairy Beggarticks: 0
Hairy beggarticks; [5]
  Plant response rating, Hairy Beggarticks: 0
canarygrass; Postemergence, 31 g ai/ha
  Canarygrass plant response rating: 10
canarygrass; Postemergence, 125 g ai/ha
  Canarygrass plant response rating: 25
canarygrass; Postemergence, 250 g ai/ha
  Canarygrass plant response rating: 40
canarygrass; postemergence, 62 g ai/ha
  Canarygrass plant response rating: 15
johnsongrass; [1]
  Plant response rating, Johnsongrass: 75
johnsongrass; [2]
  Plant response rating, Johnsongrass: 98
johnsongrass; [3]
  Plant response rating, Johnsongrass: 98
johnsongrass; [4]
  Plant response rating, Johnsongrass: 0
johnsongrass; [5]
  Plant response rating, Johnsongrass: 25

## CCOc1cc(C(=O)NC(C)C)nn1Cc1ccnc(C(F)(F)F)c1 [Compound 188]
wheat, winter; Postemergence, 31 g ai/ha
  Wheat, Winter plant response rating: 25
wheat, winter; Postemergence, 125 g ai/ha
  Wheat, Winter plant response rating: 30
wheat, winter; Postemergence, 250 g ai/ha
  Wheat, Winter plant response rating: 65
wheat, winter; postemergence, 62 g ai/ha
  Wheat, Winter plant response rating: 25
wheat, spring; Postemergence, 31 g ai/ha
  Wheat, Spring plant response rating: 10
wheat, spring; Postemergence, 125 g ai/ha
  Wheat, Spring plant response rating: 15
wheat, spring; Postemergence, 250 g ai/ha
  Wheat, Spring plant response rating: 40
wheat, spring; postemergence, 62 g ai/ha
  Wheat, Spring plant response rating: 10
buckwheat, wild; 31 g ai/ha
  Plant response rating, Buckwheat, Wild: 100
buckwheat, wild; 62 g ai/ha
  Plant response rating, Buckwheat, Wild: 100
buckwheat, wild; 125 g ai/ha
  Plant response rating, Buckwheat, Wild: 100
buckwheat, wild; 250 g ai/ha
  Plant response rating, Buckwheat, Wild: 100
oat, wild; Postemergence, 31 g ai/ha
  Oat, Wild plant response rating: 15
oat, wild; Postemergence, 125 g ai/ha
  Oat, Wild plant response rating: 25
oat, wild; Postemergence, 250 g ai/ha
  Oat, Wild plant response rating: 70
oat, wild; postemergence, 62 g ai/ha
  Oat, Wild plant response rating: 15
chamomile; Postemergence, 31 g ai/ha
  Chamomile plant response rating: 65
chamomile; Postemergence, 125 g ai/ha
  Chamomile plant response rating: 70
chamomile; Postemergence, 250 g ai/ha
  Chamomile plant response rating: 75
chamomile; postemergence, 62 g ai/ha
  Chamomile plant response rating: 65
deadnettle; Postemergence, 31 g ai/ha
  Deadnettle plant response rating: 35
deadnettle; Postemergence, 125 g ai/ha
  Deadnettle plant response rating: 45
deadnettle; Postemergence, 250 g ai/ha
  Deadnettle plant response rating: 55
deadnettle; postemergence, 62 g ai/ha
  Deadnettle plant response rating: 35
radish, wild; 62 g ai/ha
  Plant response rating, Radish, Wild: 100
radish, wild; 125 g ai/ha
  Plant response rating, Radish, Wild: 100
radish, wild; 250 g ai/ha
  Plant response rating, Radish, Wild: 100
Arrowleaf sida; Preemergence, 16 g ai/ha, scale 0 to 100
  Plant response rating, Arrowleaf Sida: 0
Arrowleaf sida; [2]
  Plant response rating, Arrowleaf Sida: 10
Arrowleaf sida; [3]
  Plant response rating, Arrowleaf Sida: 20
Arrowleaf sida; [4]
  Plant response rating, Arrowleaf Sida: 0
Giant foxtail; [2]
  Plant response rating, Giant Foxtail: 100
Giant foxtail; [3]
  Plant response rating, Giant Foxtail: 100
Giant foxtail; [4]
  Plant response rating, Giant Foxtail: 5
barley, spring; 31 g ai/ha
  Plant response rating, Barley, Spring: 65
barley, spring; 62 g ai/ha
  Plant response rating, Barley, Spring: 75
barley, spring; 125 g ai/ha
  Plant response rating, Barley, Spring: 85
barley, spring; 250 g ai/ha
  Plant response rating, Barley, Spring: 95
barley, winter; 31 g ai/ha
  Plant response rating, Barley, Winter: 35
barley, winter; 62 g ai/ha
  Plant response rating, Barley, Winter: 70
barley, winter; 125 g ai/ha
  Plant response rating, Barley, Winter: 80
barley, winter; 250 g ai/ha
  Plant response rating, Barley, Winter: 100
Hairy beggarticks; [2]
  Plant response rating, Hairy Beggarticks: 0
Hairy beggarticks; [3]
  Plant response rating, Hairy Beggarticks: 0
Hairy beggarticks; [4]
  Plant response rating, Hairy Beggarticks: 0
canarygrass; Postemergence, 31 g ai/ha
  Canarygrass plant response rating: 15
canarygrass; Postemergence, 125 g ai/ha
  Canarygrass plant response rating: 20
canarygrass; Postemergence, 250 g ai/ha
  Canarygrass plant response rating: 35
canarygrass; postemergence, 62 g ai/ha
  Canarygrass plant response rating: 15
johnsongrass; [2]
  Plant response rating, Johnsongrass: 80
johnsongrass; [3]
  Plant response rating, Johnsongrass: 95
johnsongrass; [4]
  Plant response rating, Johnsongrass: 0
